Assay results reported in paper PMC4147338, “Host defense peptides for treatment of colorectal carcinoma – a comparative in vitro and in vivo analysis” (Oncotarget, 2014).

Legend:
Assay type in all cases: cell-based, human
HROC18 cells = assay: Apoptosis/necrosis assay, YO-PRO-1/PI flow cytometry; details: HROC18, 24h; for total killing: background cell death subtracted
Procedure: (§1) Figure 5 Apoptosis/necrosis assay and Western blot analysis (A, B) HROC18 and HROC24 cells were exposed to increasing HDP concentrations for a period of 24 hours. Tumor cells were stained with YO-PRO-1 for detecting early and late apoptotic tumor cells. Prior to flow cytometric analysis, PI was added to detect necrotic cells, as well. (A) Representative dot plots showing HDP-treated HROC24 cells at a concentration of 5 μM. Lower right quadrant: early apoptotic cells; upper right quadrant: late apoptotic cells; upper left quadrant: necrotic cells. (B) For cell death quantification, values of background cell death (=untreated controls) were subtracted from values of HDP-treated cells. Left panel: HROC24 cell; right panel: HROC18 cells. (C, E) Representative western blot results showing HDP-treated HROC24 cells (20 μg of total protein per lane). (D, F) Quantitative analysis of BAX and HSP90 expression in HDP-treated cells was done as described in material & methods. Expression levels of untreated cells were set to be =1 and x-fold increases of HDP-exposed cells were calculated. […] Values are given as mean ± SD.
(§2) Cell death was quantified by YO-PRO-1 (Invitrogen) and PI double staining. Selected tumor cells (HROC24 and HROC18, 1 × 10^4 cells/well) were seeded in 24-well plates and incubated overnight. Thereafter, peptides were added in increasing concentrations (ranging from 0.25 μM – 12.5 μM). Untreated cells served as living control. Following a 24-hour incubation period, supernatants were collected; cells were trypsinized and washed in PBS. Cells were stained with YO-PRO-1 (final concentration: 0.2 μM) for 20 min at room temperature. Prior to flow cytometric analysis, PI was added at a final concentration of 100 μg/ml. For cell death quantification, values of background cell death (=untreated controls) were subtracted from values of HDP-treated cells.

HROC24 cells [1] = assay: as above; details: for Levels of viable HROC24 cells: 24h, higher concentrations
Procedure: as §1, §2

HCT116 cells = assay: Calcein-AM cell viability staining, 24h; details: HCT116, 24h, 0.25-12.5 μM
Procedure: (§3) Figure 4 HDP-mediated cytotoxicity towards tumor cells Quantitative analysis of direct cytotoxicity towards tumor cells following a 24h incubation period with increasing HDP concentrations. Viability was assessed using Calcein-AM staining. Remaining viable tumor cells were quantified in comparison to untreated controls, which were set to be =1. […] Values are given as the mean x-fold increase ± SD. *p<0.05 vs. NK11; **p<0.01 vs. NK11.
(§4) This assay is based on Calcein-acetoxymethylester (Calcein-AM; Invitrogen, Darmstadt, Germany) staining to detect viable cells within a culture. Tumor and normal (PBL) cells (1-2 × 10^4 cells/well in triplicates) were seeded in 96-well plates and incubated overnight. Thereafter, peptides were added in increasing concentrations (ranging from 0.25 μM – 12.5 μM). Untreated cells served as living cell control. Medium was removed after 1h or 24h, respectively. Calcein-AM ([…]) was added and incubated for 30 min (37°C, 5% CO2). Analysis was performed on a fluorescence multi-well plate reader (Tecan Infinite® M200, Crailsheim, Germany) at an excitation wavelength of 485 nm (emission 535 nm). For estimation of cell viability, the relative fluorescence intensities of Calcein-AM-stained non-treated cells (=live control) were set to be 1, and fluorescence intensities of samples were calculated. Data of at least three independent experiments each performed in […] are given.

HROC24 cells [2] = assay: Calcein-AM cell viability staining, 24h; details: HROC24, 24h, 0.25-12.5 μM
Procedure: as §3, §4

HROC107 cells = assay: Calcein-AM cell viability staining, 24h; details: HROC107, 24h, 0.25-12.5 μM
Procedure: as §3, §4

HROC113 cells = assay: Calcein-AM cell viability staining, 24h; details: HROC113, 24h, 0.25-12.5 μM
Procedure: as §3, §4

HROC60 cells = assay: Calcein-AM cell viability staining, 24h; details: HROC60, 24h
Procedure: as §3, §4

CRC tumor cell lines = assay: Calcein-AM cell viability staining, short-term exposure (1h); details: 0.25-12.5 μM, three separate experiments
Procedure: According to our classification, we included three PS^high (HCT116, HROC18, and HROC24), three PS^int (HROC40, HROC60, and HROC113), and two PS^low (HROC32 and HROC107) surface-exposed cell lines.
Figure 3 Short-term exposure of HDPs towards tumor cells (A) Representative pictures showing morphological changes in HROC24 cells upon HDP C7A-D21K exposure (25 μM). As a control, HROC24 cells were treated with NK11 (25 μM). (B) Quantitative analysis of direct cytotoxicity towards tumor cells. Tumor cells were treated for 1h with increasing HDP concentrations. Thereafter, viability was assessed using Calcein-AM staining. Remaining viable tumor cells were quantified in comparison to untreated controls, which were set to be =1. […] Values are given as the mean x-fold increase ± SD, *p<0.05 vs. NK11; **p<0.01 vs. NK11.
(§5) This assay is based on Calcein-acetoxymethylester (Calcein-AM; Invitrogen, Darmstadt, Germany) staining to detect viable cells within a culture. […] Analysis was performed on a fluorescence multi-well plate reader (Tecan Infinite® M200, Crailsheim, Germany) at an excitation wavelength of 485 nm (emission 535 nm). For estimation of cell viability, the relative fluorescence intensities of Calcein-AM-stained non-treated cells (=live control) were set to be 1, and fluorescence intensities of samples were calculated. […]

[3] = test system: peripheral blood lymphocytes (PBL); assay: Lymphotoxicity, Calcein-AM viability of PBL; details: PBL of six healthy donors, 24h, 0.25-12.5 μM
Procedure: Figure 6 Hemolysis and lymphotoxicity assays (A) Hemolytic activity of HDPs was determined by hemoglobin release from whole blood cells after 120 min incubation. Negative controls were left untreated whereas positive controls (=maximum lysis) were treated with 1% SDS. Hemolytic activity was quantified as described in the material and methods section. (B) PBLs were incubated in the presence of increasing HDP concentrations for a period of 24 hours. Viability was analyzed using Calcein-AM and quantified in comparison to untreated controls, which were set to be =1. […] Experiments were performed in triplicates. Values are given as the mean x-fold increase ± SD.
CRC cell lines HROC18, HROC24, HROC32, HROC40, HROC57, HROC60, HROC69, HROC80, HROC87, HROC107, and HROC113 were established in our lab from patients subsequent to surgical resection. […]
as §5

Sequence	total killing (HROC18 cells)	Levels of viable HROC24 cells (HROC24 cells [1])	Lytic activity towards tumor cells (HCT116 cells)	Lytic activity towards tumor cells (HROC24 cells [2])	Tumor killing, ranking (HROC18 cells)	Tumor killing compared with Melittin (HROC24 cells [1]; HROC24, 24h)	Killing of tumor cells / viability (HROC107 cells)	Killing of tumor cells / viability (HROC113 cells)	lysis vs. control (HROC60 cells)	Direct cytotoxicity / tumor cell lysis after short-term exposure (CRC tumor cell lines)	Lymphocyte viability [3]
KILRGVAKKIMRTFLRRISKDILTGKK [Peptide C7A, NK-2 derivative, Cys7 replaced with Ala]	up to 60%	25%	as effective as the reference compound Mellitin	as effective as the reference compound Mellitin							
KILRGVAKKIMRTFLRRISKKILTGKK [Peptide C7A-D21K, C7A with Asp21 substituted by Lys]	74%	17%	as effective as the reference compound Mellitin	as effective as the reference compound Mellitin	the most effective one and even slightly better than Melittin	as effective in tumor killing as Melittin	most effective in killing these tumor cells	most effective in killing these tumor cells	> 40%		
KISKRILTGKK [NK11, non-toxic control peptide based on NK-2, reference compound]										lack of NK11-mediated tumor cell lysis	did not affect lymphocyte viability
